Measurements published in patent US5932707A, “Thioether-containing metal chelating compounds” (Nycomed Amersham plc, priority 1993, dated 1999).
Each block holds one compound with its values, some of them ahead of it.

What was measured:
[1] = Human plasma protein binding of technetium complexes (ultrafiltration); type: in vitro ADME; conditions: technetium complex, read-out: PPB % bound (converted)
Protocol: Human plasma protein binding was determined by ultrafiltration^(9), such that the percentage of complex bound is an indicator of the affinity of binding.
The plasma protein binding figure obtained for a given compound is highly dependent on the method of determination used^(10). Thus equilibrium dialysis measurement may lead to higher PPB figures than those obtained via ultrafiltration due to longer incubation times. Use of serum rather than plasma may also underestimate the true extent of binding. There are also significant interspecies differences.

[2] = neutral lipophilic technetium complex; cited from earlier work
[3] = system: V79-379A Chinese hamster cells; assay: Hypoxic and oxic binding of 99mTc labelled compounds to cells in vitro; type: cell-based; conditions: 99mTc complex; for Oxic SN (supernatant): air +5% CO2; for Oxic pellet: air +5% CO2, 37° C.; for Oxic pellet / Hypoxic pellet: 10^6 cells per pellet; for Hypoxic SN (supernatant): nitrogen +5% CO2; for Hypoxic pellet: nitrogen +5% CO2, 37° C.
Protocol: V79-379A Chinese hamster cells were harvested from exponential suspension culture and resuspended at 1.1×10^6 cells cm^-3 in Bagle's MEM. 20 cm^3 of cells were transferred to small spinner vessels and gassed with either air +5% CO2 (oxic) or nitrogen +5% CO2 (Hypoxic) at 37° C. After 30 minutes, between 0.5 cm^3 and 1 cm^3 of ^99m Tc labelled compound was added. At timed intervals 1 cm^3 of cell suspension was withdrawn from each flask and chilled on ice in small polystyrene centrifuge tubes. The cells were centrifuged and washed three times in ice-cold medium (Eagle's MEM) to give constant counts in the cell pellet. The pellets were counted in LKB 1282 Compugamma counter. The initial supernatant was diluted 1 in 100 with saline and 1 cm^3 was counted. All samples were counted at the end of the incubation period and counts have been corrected for decay during counting but not for decay during incubation.
Attempts were made to decrease the amount of non-specific binding by incubating the cell samples in a large volume of medium for one hour at 37° C. under oxic conditions.

human erythrocyte ghosts = assay: Red cell ghost (RCG) uptake; type: in vitro ADME; conditions: for RCG uptake: technetium complex, human erythrocyte ghosts
Protocol: RCG uptake is determined by incubation of a fixed amount of labelled complex with a range of ghost concentrations. The percentage of labelled complex […] is calculated for each ghost concentration to yield a single uptake figure expressed as %/mg protein.

[4] = Stability when handled in air; type: physicochemical

fraction unbound [1]: 0.38
SMILES: CC(C)(S)CNCCNCC(C)(C)S [BAT, reference compound]
blood-brain barrier passage [2]: can cross the blood-brain barrier

fraction unbound [1]: 1
RCG uptake (human erythrocyte ghosts): 1.6 %/mg protein
SMILES: CC(=O)NCCNC(=O)CSCCSC1CCCCO1 (stereo not drawn) [HL15P, N-(2-Acetylaminoethyl)-2-(tetrahydropyran-2-ylthio)ethylthioacetamide]

fraction unbound [1]: 0.25
RCG uptake (human erythrocyte ghosts): 6.7 %/mg protein
SMILES: CC(=NO)C(C)(C)NCCCNC(C)(C)C(C)=NO [PnAO, reference compound]

RCG uptake (in words) (human erythrocyte ghosts; 99mTc complex): excluded from the ghosts
SMILES: O=C([O-])CN(CCN(CC(=O)[O-])CC(=O)[O-])CCN(CC(=O)[O-])CC(=O)[O-].[99Tc+4] [^99m Tc-DTPA, reference compound]

Continued, compound first:

SMILES: CC(=O)NCSCC(NCC(O)Cn1ccnc1[N+](=O)[O-])C(=O)NCC(=O)NCCN(C)C (stereo not drawn) [HL11P]
Hypoxic:oxic ratio ([3]; 0.5 hrs): 5.79
Oxic SN (supernatant) ([3]; 0.5 hrs): 25.1 cpm/ml (10^-7)
Oxic pellet ([3]; 0.5 hrs): 0.42 cpm (×10^-5)
Hypoxic SN (supernatant) ([3]; 0.5 hrs): 22.2 cpm/ml (10^-7)
Hypoxic pellet ([3]; 0.5 hrs): 2.15 cpm (×10^-5)
Hypoxic:oxic ratio ([3]; 1.0 hrs): 2.91
Oxic SN (supernatant) ([3]; 1.0 hrs): 24.9 cpm/ml (10^-7)
Oxic pellet ([3]; 1.0 hrs): 0.71 cpm (×10^-5)
Hypoxic SN (supernatant) ([3]; 1.0 hrs): 22.3 cpm/ml (10^-7)
Hypoxic pellet ([3]; 1.0 hrs): 1.85 cpm (×10^-5)
Hypoxic:oxic ratio ([3]; 2.0 hrs): 3.86
Oxic SN (supernatant) ([3]; 2.0 hrs): 25.5 cpm/ml (10^-7)
Oxic pellet ([3]; 2.0 hrs): 0.99 cpm (×10^-5)
Hypoxic SN (supernatant) ([3]; 2.0 hrs): 22.2 cpm/ml (10^-7)
Hypoxic pellet ([3]; 2.0 hrs): 3.33 cpm (×10^-5)
Hypoxic:oxic ratio ([3]; 3.0 hrs): 3.60
Oxic SN (supernatant) ([3]; 3.0 hrs): 25.6 cpm/ml (10^-7)
Oxic pellet ([3]; 3.0 hrs): 1.18 cpm (×10^-5)
Hypoxic SN (supernatant) ([3]; 3.0 hrs): 22.4 cpm/ml (10^-7)
Hypoxic pellet ([3]; 3.0 hrs): 3.72 cpm (×10^-5)
Hypoxic:oxic ratio ([3]; 4.0 hrs): 5.07
Oxic SN (supernatant) ([3]; 4.0 hrs): 26.0 cpm/ml (10^-7)
Oxic pellet ([3]; 4.0 hrs): 1.40 cpm (×10^-5)
Hypoxic SN (supernatant) ([3]; 4.0 hrs): 22.8 cpm/ml (10^-7)
Hypoxic pellet ([3]; 4.0 hrs): 6.22 cpm (×10^-5)
Hypoxic:oxic ratio ([3]; 5.0 hrs): 3.26
Oxic SN (supernatant) ([3]; 5.0 hrs): 25.7 cpm/ml (10^-7)
Oxic pellet ([3]; 5.0 hrs): 1.63 cpm (×10^-5)
Hypoxic SN (supernatant) ([3]; 5.0 hrs): 22.7 cpm/ml (10^-7)
Hypoxic pellet ([3]; 5.0 hrs): 4.70 cpm (×10^-5)

SMILES: CC(=O)NCCNC(=O)CCSCCSC1CCCCO1 (stereo not drawn) [HL49, N-(2-acetylaminoethyl)-3-[2-(tetrahydropyran-2-ylthio)ethylthio]propionamide]
fraction unbound [1]: 0.82
RCG uptake (human erythrocyte ghosts): 3.6 %/mg protein

SMILES: CC(=O)NCCCNC(=O)CSCCSC1CCCCO1 (stereo not drawn) [HL60P, N-(3-acetylamino)propyl-2-(tetrahydropyran-2-ylthio)ethylthioacetamide]
fraction unbound [1]: 1
RCG uptake (human erythrocyte ghosts): 1.1 %/mg protein

SMILES: CC(=O)NCCNC(=O)CSCCS [HL 15D, N-(2-Acetylaminoethyl)-2-mercaptoethylthioacetamide]
tendency to oxidise to the corresponding disulphide [4]: tended to oxidise to the corresponding disulphide if handled in air
